The test system of assay [1] is human colorectal cancer cell line COLO-320DM. Kind of assay: Cell proliferation inhibitory activity test (Celltiter-Glo). It is filed as cell-based. To be noted: 96 hours, read-out: COLO-320DM (cell proliferation inhibitory activity), G150 rating. The method, then: The cell proliferation inhibitory activity of the compound, which had been prepared in each of Compound Examples, against the human colorectal cancer cell line COLO-320DM was evaluated by Celltiter-Glo Luminescent Cell Viability Assay (Promega Corporation; G7573). COLO-320DM cells were cultured in RPMI-1640 medium containing 2 mM glutamine (Wako Pure Chemical Industries, Ltd; 189-02025) supplemented with 10% fetal bovine serum. The cultured cells were washed with PBS, and then dissociated with trypsin/EDTA, and a cell solution with 3×10^4 cells/mL was prepared.
Subsequently, the cell solution was seeded in a 96-well microplate (Thermo/Nunc Company; 136101) in an amount of 70 μL per well, and cultured overnight under the condition of 37° C. and 5% COz. The next day, a test compound solution obtained by diluting the test compound (DMSO solution) with a cell culture medium (final concentration of DMSO was 1%) was added in an amount of 10 μL per well, and the mixture was reacted under the condition of 37° C. and 5% CO2 for 96 hours (a 1% DMSO solution was used as a control). Thereafter, a Celltiter-Glo Luminescent Cell Viability Assay reagent was added (Promega Corporation; G7573) in an amount of 80 μL per well, the mixture was stirred with a shaker for 2 minutes while light was blocked with an aluminum foil, and the mixture was incubated at room temperature for 10 minutes.
Thereafter, a luminescence signal was measured with a luminometer (Biotech Company; Synergy). The ratio of cell proliferation in each compound addition group to cell proliferation in a control group containing no test compound solution, where cell proliferation in the control group is 100%, was determined, and the value of a compound concentration necessary for suppressing the amount of residual cells to 50% of that in the control (G150) was calculated as the cell proliferation inhibitory activity. For the COLO-320DM (cell proliferation inhibitory activity against COLO-320DM) of each test compound as measured through the above-mentioned method, a test compound having a G150 value of less than 1 μM was rated “A”, a test compound having a G150 value of 1 μM or more and less than 10 μM was rated “B”, a test compound having a G150 value of 10 μM or more was rated “C”, and an unevaluated test compound was designated as “NT”.
(In ATP-based viability assays light output follows the ATP content of the culture.)

The target of another assay is T1, tankyrase 2 (Homo sapiens, UniProt Q9H2K2).
T1 construct: tankyrase 2 (613-1, 116aa, ANK5+SAM+PARP); made in house; host or cells: cell-free protein expression system
Kind of assay: Tankyrase inhibitory activity test (ELISA, auto-poly(ADP-ribosyl)ation), TNKS2. The note with it: Flag-tagged tankyrase 2 (ANK5+SAM+PARP), read-out: TNKS2 (inhibitory activity against tankyrase 2), IC50 rating. It is filed as biochemical. As to the method:
The enzymatic activity of tankyrase 1 and the enzymatic activity of tankyrase 2 were measured by the ELISA method based on assessment of auto-poly(ADP-ribosyl)ation to evaluate the tankyrase inhibitory activity of the compound prepared in each of Compound Examples (test compound) (inhibitory activity against tankyrase 1 (TNKS1) and inhibitory activity against tankyrase 2 (TNKS2)). First, Flag-tagged tankyrase 1 (1,024-1, 327aa, SAM+PARP) and tankyrase 2 (613-1, 116aa, ANK5+SAM+PARP) were synthesized with a cell-free protein expression system, and diluted with a Tris buffer solution (50 mM Tris-HCl (pH 8.0), 150 mM NaCl, 10% glycerol). 50 μL of the diluted tankyrase 1 or tankyrase 2 was added to a plate with an anti-FLAG M2 monoclonal antibody immobilized thereon (Anti-FLAG High-Sensitivity M2-Coated Plate) (Sigma-Aldrich), and the mixture was left to stand overnight at 4° C. Thereafter, the plate was washed four times with a PBS (PBST) buffer containing 0.1% TritonX-100.
Subsequently, the test compound diluted with an assay buffer (50 mM Tris-HCl (pH 8.0), 4 mM MgCl2, 0.2 mM DTT) (DMSO was used as a control) was added to each well of the plate, and the mixture was left to stand at room temperature for 10 minutes. Thereafter, a biotin-labeled NAD solution (225 μM NAD, 25 μM 6-Biotin-17-NAD (Travigen, Inc.)) was added and mixed as a donor substrate, and the mixture was reacted at 30° C. for 45 minutes. To blank wells was added distilled water instead of the biotin-labeled NAD solution. After the reaction, the plate was washed with a PBST buffer four times. Thereafter, HRP (horseradish peroxidase)-labeled streptavidin (Travigen, Inc.) was diluted with a PBS buffer by 1,000 times, and added to each well, and the mixture was reacted at room temperature for 20 minutes. The plate was washed with a PBST buffer four times, a chemiluminescent substrate solution TACS-Sapphire (Travigen, Inc.) was then added to each well, the mixture was reacted at room temperature for 20 minutes, and thechemiluminescence intensity was measured using a chemiluminescence measuring apparatus.
The residual enzymatic activity in the presence of the test compound was determined from the following expression. On the basis of the residual enzymatic activity at each of multiple concentrations of the test compound, the enzyme inhibitory activity was calculated in terms of a 50%-inhibition concentration (IC50 value) using data analysis software Origin (LightStone Corp.). Residual activity (%)={(chemiluminescence intensity with test compound added)−(chemiluminescence intensity of blank)}/{(chemiluminescence intensity of control)−(chemiluminescence intensity of blank))
(In an ELISA, binding on a coated surface is turned into a signal by an enzyme label.)

T1 sequence (Q9H2K2 613-1166): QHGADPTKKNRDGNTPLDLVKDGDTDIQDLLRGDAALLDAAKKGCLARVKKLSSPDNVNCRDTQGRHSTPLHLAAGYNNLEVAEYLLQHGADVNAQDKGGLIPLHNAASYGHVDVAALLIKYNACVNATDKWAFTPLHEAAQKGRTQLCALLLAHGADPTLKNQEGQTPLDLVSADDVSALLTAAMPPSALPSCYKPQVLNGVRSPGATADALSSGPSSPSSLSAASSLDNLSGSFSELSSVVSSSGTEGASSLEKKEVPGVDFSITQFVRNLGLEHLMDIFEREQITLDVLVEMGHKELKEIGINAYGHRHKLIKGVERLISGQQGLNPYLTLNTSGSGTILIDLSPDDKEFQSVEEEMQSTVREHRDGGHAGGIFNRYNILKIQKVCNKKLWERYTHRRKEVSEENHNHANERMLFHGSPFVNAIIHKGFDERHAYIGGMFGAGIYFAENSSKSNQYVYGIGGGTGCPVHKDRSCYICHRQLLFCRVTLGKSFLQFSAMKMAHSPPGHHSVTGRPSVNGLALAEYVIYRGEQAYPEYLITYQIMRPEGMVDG

As for `CCOc1ccc(-c2n[nH]nc2[C@H]2NC(=O)c3cccc(C)c3N2)cc1` [Compound Example 101, (2R)-2-[5-(4-Ethoxyphenyl)-2H-1,2,3-triazol-4-yl]-8-methyl-2,3-dihydro-1H-quinazolin-4-one], the IC50 in assay [1] is under 1 µM; on tankyrase 2, under 0.02 µM.
The corresponding values for `COc1ccc(-c2c[nH]nc2C2NC(=O)c3cccc(C)c3N2)cc1` (stereo not shown) [Compound Example 113, 2-[4-(4-Methoxyphenyl)-1H-pyrazol-3-yl]-8-methyl-2,3-dihydro-1H-quinazolin-4-one] are at least 10 µM and 0.02 to 0.2 µM.

(Values after patent US20210060016A1, “ANTICANCER AGENT” (JAPANESE FOUNDATION FOR CANCER RESEARCH, priority 2017, published 2021).)
